Assay results as given in ChEMBL document CHEMBL1201862, “PubChem BioAssay data set” (2004).
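In this assay, cells in 96-well plates receive the compound at five concentrations for 48 hours. Endpoints are linearly interpolated between the surrounding concentrations. GI50 is the concentration that inhibits growth by half.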 The source made the active and inactive calls. Cut-off read from the data, not from the text of the source: active = GI50 up to about 1.1 µM and inactive = higher.

Columns and labels:
Assay in all cases: NCI-60 cell line screen, 48 h
BT-549 = tested on: BT-549
SNB-78 = tested on: SNB-78
M19-MEL = tested on: M19-MEL
LXFL 529 = tested on: LXFL 529
DLD-1 = tested on: DLD-1
KM-20L2 = tested on: KM-20L2
HOP-18 = tested on: HOP-18
DMS-114 = tested on: DMS-114
RXF 631 = tested on: RXF 631

For `CC(=O)NC1=C(OS(=O)(=O)c2ccc(C)cc2)CN(C)C1=O`, the GI50 (BT-549) was 3.09 µM (inactive).
In the case of `O=C(N/N=C\c1cccc(O)c1)c1ccncc1`, the GI50 (BT-549) is reported as > 100 µM (inactive).
In the case of `CN(Cc1cccc2ccccc12)Cc1cccc2ccccc12`, the GI50 (BT-549) is reported as 56.4 µM (inactive).
In the case of `Nc1nc(N)c2c(Cl)c(CNc3ccc(C(=O)NC(CC(=O)O)C(=O)O)cc3)ccc2n1` (stereo not given), the GI50 (BT-549) is reported as < 0.01 µM (active).
With `O=[N+]([O-])/C=C/c1c(Cl)cccc1Cl` the GI50 (BT-549) was 2.01 µM (inactive).
With `CN(C)CCCNC(=O)c1cn2c(ccc3sc4ccccc4c(=O)c32)n1` the GI50 (BT-549) was 18.5 µM (inactive).
With `O=C1c2ccccc2C(=O)N1c1ccc(Cc2ccc(N3C(=O)c4ccccc4C3=O)cc2)cc1` the GI50 (BT-549) was > 100 µM (inactive).
For `CC(=O)c1c(-c2cccc3ccccc23)c(C#N)c(=S)n(C2OC(CO)C(O)C(O)C2O)c1C` (stereo not given), the GI50 (BT-549) was > 100 µM (inactive).
In the case of `COc1ccc(N2C(=O)/C(=C\c3ccccc3)SC2c2cc(OC)c(OC)c(OC)c2)cc1` (stereo not given), the GI50 (BT-549) is reported as > 100 µM (inactive).
For `CCC1C(=O)OCc2c1cc1n(c2=O)C(CC)c2c-1nc1ccccc1c2Cl` (stereo not given), the GI50 (SNB-78) was 25.6 µM (inactive), the GI50 (M19-MEL) was 32.4 µM (inactive) and the GI50 (LXFL 529) was 25.9 µM (inactive). For the same compound, the GI50 (DLD-1) was 35.2 µM (inactive), the GI50 (KM-20L2) was 31.3 µM (inactive) and the GI50 (HOP-18) was 20.3 µM (inactive).
With `CCOC(=O)NC1CC2CCC1(OC)C=C2C` (stereo not given) the GI50 (SNB-78) was > 100 µM (inactive), the GI50 (M19-MEL) was > 100 µM (inactive) and the GI50 (DMS-114) was > 100 µM (inactive). For the same compound, the GI50 (LXFL 529) was > 100 µM (inactive), the GI50 (DLD-1) was > 100 µM (inactive) and the GI50 (KM-20L2) was > 100 µM (inactive). For the same compound, the GI50 (HOP-18) was > 100 µM (inactive).
With `CCOC(=O)c1cc2c(ccc3cc(C(=O)OCC)[nH]c32)[nH]1` the GI50 (BT-549) was 52.6 µM (inactive).
In the case of `CCc1cc2c(c3c1CCCC3)CC1(Cc3ccc(C(=O)OC)cc3C1)C2` (stereo not given), the GI50 (BT-549) is reported as > 100 µM (inactive).
For `CCOc1ccc(NC(=O)CC2SC(N)=NC2=O)cc1` (stereo not given), the GI50 (SNB-78) was > 100 µM (inactive), the GI50 (M19-MEL) was > 100 µM (inactive) and the GI50 (DMS-114) was > 100 µM (inactive). The GI50 (LXFL 529) was > 100 µM (inactive), the GI50 (DLD-1) was > 100 µM (inactive) and the GI50 (KM-20L2) was > 100 µM (inactive).
With `C[N+](C)(C)C.FC(F)(F)C1(C(F)(F)F)O[SiH-]2(OC(C(F)(F)F)(C(F)(F)F)c3ccccc32)c2ccccc21` the GI50 (SNB-78) was 13.2 µM (inactive), the GI50 (M19-MEL) was 18.2 µM (inactive) and the GI50 (DMS-114) was 14.1 µM (inactive). The GI50 (LXFL 529) was 12.6 µM (inactive), the GI50 (KM-20L2) was 5.24 µM (inactive) and the GI50 (HOP-18) was 36.9 µM (inactive).
With `CCOc1cc(NC(C)=O)ccc1C(=O)NN1C(=O)/C(=C/c2cc(OC)c(OC)c(OC)c2)N=C1c1ccccc1` the GI50 (BT-549) was 16.3 µM (inactive).
In the case of `C=C1c2nc3ccccc3n2C=C(c2ccc(OC)cc2)N1c1ccc(OCCN2CCCCC2)cc1`, the GI50 (BT-549) is reported as 11.7 µM (inactive).
In the case of `CCN(CC)C(=S)SS(=O)(=O)c1cccc(N)c1`, the GI50 (BT-549) is reported as > 100 µM (inactive).
In the case of `COc1c(O)cc2c(c1O)C(=O)/C(=C/c1ccc(O)cc1)CO2`, the GI50 (BT-549) is reported as 32.9 µM (inactive).
With `CCNC(C)Cc1ccccc1` (stereo not given) the GI50 (SNB-78) was > 100 µM (inactive), the GI50 (DMS-114) was > 100 µM (inactive) and the GI50 (LXFL 529) was > 100 µM (inactive). For the same compound, the GI50 (DLD-1) was > 100 µM (inactive), the GI50 (KM-20L2) was > 100 µM (inactive) and the GI50 (HOP-18) was > 100 µM (inactive).
With `Cc1ccc(C2=Nn3c(nc4sc(-c5ccccc5)cc4c3=O)SC2)cc1` the GI50 (BT-549) was > 100 µM (inactive).
For `CC(C)NC(=O)OCc1c(COC(=O)NC(C)C)n(C)c2c1ccc1sccc12`, the GI50 (BT-549) was 2.96 µM (inactive).
In the case of `COc1cc(C[C@@]2(C)[C@@H]3CCC[C@H](CO)[C@@]3(C)CC[C@@H]2C)c(Cl)c(OC)c1`, the GI50 (BT-549) is reported as 17.6 µM (inactive).
`Cc1ccc(NC=O)c(-c2c(N)[nH]c(=S)[nH]c2=O)c1` was tested, and the GI50 (BT-549) was > 100 µM (inactive).
For `N[C@@H]1C[C@H](N)c2c(Cl)sc(Cl)c21`, the GI50 (BT-549) was > 100 µM (inactive).
With `CC(=O)OC12c3ccccc3C1CCCC21OCCCO1` (stereo not given) the GI50 (SNB-78) was > 100 µM (inactive), the GI50 (M19-MEL) was > 100 µM (inactive) and the GI50 (DMS-114) was > 100 µM (inactive). For the same compound, the GI50 (LXFL 529) was > 100 µM (inactive), the GI50 (DLD-1) was > 100 µM (inactive) and the GI50 (KM-20L2) was > 100 µM (inactive). The GI50 (HOP-18) was > 100 µM (inactive).
In the case of `CCCCN1C(=O)CS/C1=N/Nc1nc2c([nH]1)c(=O)n(C)c(=O)n2C`, the GI50 (BT-549) is reported as > 100 µM (inactive).
With `CC1=C2O[B-](c3ccccc3)(c3ccccc3)[O+]=C2C=CN1` the GI50 (RXF 631) was 44.9 µM (inactive), the GI50 (SNB-78) was 51.8 µM (inactive) and the GI50 (M19-MEL) was 62.4 µM (inactive). The GI50 (DMS-114) was 38.7 µM (inactive), the GI50 (DLD-1) was 33.4 µM (inactive) and the GI50 (KM-20L2) was 62.1 µM (inactive).
In the case of `C/C(=C/CO[Si](C)(C)C(C)(C)C)C(=O)N(C)c1ccccc1I`, the GI50 (BT-549) is reported as 20.8 µM (inactive).
`COc1cccc(/C=N/NC(=O)CN(C)C)c1O` was tested, and the GI50 (BT-549) was > 100 µM (inactive).
For `COc1ccc(N2C(=O)[C@@H]3[C@@H]4CC(C)CC[C@@H]4c4c([nH]c5ccccc45)[C@@H]3C2=O)cc1` (stereo not given in full), the GI50 (SNB-78) was 3.76 µM (inactive), the GI50 (M19-MEL) was > 70.1 µM (inactive) and the GI50 (DMS-114) was 31.1 µM (inactive). For the same compound, the GI50 (LXFL 529) was 20.3 µM (inactive), the GI50 (DLD-1) was 29.5 µM (inactive) and the GI50 (KM-20L2) was > 54.8 µM (inactive). For the same compound, the GI50 (HOP-18) was 4.4 µM (inactive).
`CN/N=C(/Cc1occc(=O)c1O)C(=O)Nc1ccc(C)c(C)c1` was tested, and the GI50 (SNB-78) was 60.1 µM (inactive), the GI50 (M19-MEL) was > 100 µM (inactive) and the GI50 (DMS-114) was > 100 µM (inactive). The GI50 (LXFL 529) was > 100 µM (inactive) and the GI50 (KM-20L2) was > 100 µM (inactive).
For `CN(Cc1ccccc1)C(=NC#N)N(C)Cc1ccccc1`, the GI50 (SNB-78) was > 100 µM (inactive), the GI50 (M19-MEL) was > 100 µM (inactive) and the GI50 (LXFL 529) was > 100 µM (inactive). For the same compound, the GI50 (DLD-1) was > 100 µM (inactive) and the GI50 (KM-20L2) was > 100 µM (inactive).
For `O=c1[nH]c2ccsc2c(=O)n1COCc1ccccc1`, the GI50 (BT-549) was > 100 µM (inactive).
